This assay deals with primary cultures of rat hippocampal neurons. The assay can be described thus: NMDA-induced neuronal death, trypan blue exclusion. It counts as cell-based. The following applies: DNQX; 100 μM SR-95531; not shown. How it is done:
Principally neuronal cultures were prepared from hippocampal tissue of fetal Sprague-Dawley rats on day 18 of embryonic development, as previously described (Brewer et al., Brain Research 494: 65-74 (1989)). Briefly, hippocampal cells were dissociated by trituration in Ca^2+/Mg^2+-free Hank's basic salt solution (Gibco) supplemented with 4.2 mM bicarbonate, 1 mM sodium pyruvate, 20 mM HEPES, 3 mg/ml bovine serum albumin (BSA). Dissociated cells were then pelleted by centrifugation (500×g, 4 min). […] Cells were then plated onto poly-L-lysine-coated 24-well culture dishes (Nunclon) at a density of 15,000 cell/cm^2 and maintained in a humidified atmosphere containing 5% CO2/95% air at 37° C. After 48 h, nonneuronal cell division was inhibited by a 48 h exposure to 1 μM cytosine arabinoside. Cultures were subsequently maintained in serum-free DMEM plus defined components and were used for experiments 16 to 24 days after plating.
Steroids were dissolved in DMSO (0.5% final concentration), and all treatment media contained 0.5% DMSO. […] Following exposure, cultures were washed 3 times with medium from sister cultures (conditioned medium). After the final wash, steroid or vehicle was reintroduced. Drugs were added to cultures in 25 μl of conditioned medium to yield a final volume of 0.25 ml per well. Except where otherwise noted, final steroid concentration was 100 μM.
The ability of neurons to exclude trypan blue was used to quantitate cell viability (Dawson et al., Proc Natl Acad Sci USA 88: 6368-6371 (1991)). […] Cultures were then fixed with 4% paraformaldehyde in PBS for 30 min, at whichtime the fixative was replaced with PBS. The number of stained and unstained neurons were counted in 4 high-power fields per culture well, using an inverted phase contrast microscope under both bright field and phase contrast settings. Experiments were performed in triplicate, and all assessments were made with the experimenter blind to the treatment of each culture well. Percent cell death is expressed as follows: (number of trypan blue stained neurons)/(total number of neurons)×100%.
All data are expressed as mean±standard error of the mean. Statistical significance was evaluated using 95% confidence limits unless otherwise noted.

On to `O=C1N=c2cc([N+](=O)[O-])c([N+](=O)[O-])cc2=NC1=O` [DNQX, 6,7-dinitroquinoxaline-2,3-dione], for which the “effect on NMDA-induced neuronal death” value is “no effect”.

Consider `Br.COc1ccc(-c2ccc(=N)n(CCCC(=O)O)n2)cc1` [SR-95531], for which the “effect on NMDA-induced neuronal death” value is “no effect”.

Source of the values: patent US6623933B1 (priority 1999, dated 2003).
